{"source": "patent EP4620962A1", "about": "“PEPTIDE HAVING ACTIVITIES TO PROMOTE HAIR GROWTH AND AMELIORATE DAMAGED HAIR, AND USE THEREOF” (Caregen Co., Ltd., priority 2022, dated 2025)", "key": {"beta-catenin": {"system": "beta-catenin", "assay": "Nuclear beta-catenin Western blot in hair follicle dermal papilla cells", "format": "cell-based, human", "details": "nuclear proteins, HDAC1 as nuclear marker, FIGS. 5 and 6", "protocol": "In this experimental example, effects of a peptide according to an embodiment on proliferation mechanism of human hair follicle dermal papilla cells were examined. Specifically, human hair follicle dermal papilla cells were incubated in the same manner as in Experimental Example 2-2, and treated with a peptide according to an embodiment. Then, nuclear proteins were isolated from the culture by using a nuclear protein extraction kit (Thermo scientific, USA). Subsequently, expression levels of proteins were examined in the same manner as in Experimental Example 2-2 by using beta-catenin (cell signaling, USA) and HDAC1 (santa cruz, USA) antibodies. Meanwhile, a untreated group was used as a control, and a group treated with 10 ng/mL recombinant human Wnt-3a protein (rhWnt-3a, R&D systems (USA, MN)) was used as a positive control."}, "[1]": {"system": "human hair follicle dermal papilla cells (HFDPCs)", "assay": "Proliferation of hair follicle dermal papilla cells (MTT)", "format": "cell-based", "details": "5 µM, or 50 µM, 72 hours, absorbance at 540 nm, FIGS. 1 and 2", "protocol": "In this experimental example, effects of a peptide according to an embodiment on proliferation of human hair follicle dermal papilla cells were examined by evaluating a change in viability of the human hair follicle dermal papilla cells (HFDPCs). Specifically, human hair follicle dermal papilla cells were seeded on a 96-well plate at a density of 4×10^3 cells/well, followed by incubation in a mesenchymal stem cell complete medium for 24 hours. Subsequently, the culture medium was replaced with a serum free mesenchymal stem cell complete medium, followed by incubation for 24 hours. Thereafter, a peptide according to an embodiment was aliquoted thereinto at a concentration of […], 5 µM, or 50 µM, followed by incubation for 72 hours at 37 °C. Then, the culture was washed with PBS, and 10 µL of a 5 mg/ml MTT solution was aliquoted into each well. After incubating the culture in a CO2 incubator for 4 hours, the culture medium was removed, and 100 µL of dimethyl sulfoxide (DMSO) was added thereto, followed by stirring for 10 minutes. Thereafter, absorbance was measured at a wavelength of 540 nm by using a spectrophotometer. Meanwhile, a untreated group was used as a control, and a group treated with 1 µM EGF was used as a positive control."}, "[2]": {"system": "Ha3-II, Keratin 5, Keratin 14, and Keratin 19 in human hair outer root sheath cells (HHORSCs)", "assay": "RT-PCR of activators of outer root sheath cells", "format": "cell-based", "details": "RNA level; 5 µM, or 50 µM, 24 hours; FIGS. 11 and 12", "protocol": "In this experimental example, effects of a peptide according to an embodiment on expression of type I cuticular Ha3-II (Ha3-II), Keratin 5, Keratin 14, and Keratin 19, which are cytokine related to activation of human hair outer root sheath cells (HHORSCs), were examined. Specifically, human hair outer root sheath cells were seeded on a 6-well plate at a density of 4×10^5 cell/well, followed by incubation for 24 hours in a mesenchymal stem cell complete media. Subsequently, the culture medium was replaced with a serum free mesenchymal stem cell complete medium, followed by incubation for 24 hours. Thereafter, a peptide according to an embodiment was aliquoted thereinto at a concentration of […], 5 µM, or 50 µM, followed by incubation for 24 hours at 37 °C. Then, gene expression was examined in the RNA level in the same manner as in Experimental Example 2-3 by using primers of Table 3 below. Meanwhile, a untreated group was used as a control, and a group treated with 50 nM EGF was used as a positive control."}, "DKK-1 (Dickkopf-1)": {"system": "DKK-1 (Dickkopf-1)", "assay": "DKK-1 expression (Western blot) in DHT-treated hair follicle dermal papilla cells", "format": "cell-based, human", "details": "dihydrotestosterone (DHT) added; 5 µM, or 50 µM; FIGS. 9 and 10"}, "ERF and AKT": {"system": "ERF and AKT", "assay": "Western blot of proliferation-related factors (phospho-AKT, phospho-ERK) in hair follicle dermal papilla cells", "format": "cell-based, human", "details": "5 µM, or 50 µM, 24 hours, FIGS. 3 and 4", "protocol": "In this experimental example, effects of a peptide according to an embodiment on activation of factors related to proliferation of human hair follicle dermal papilla cells were examined. Specifically, human hair follicle dermal papilla cells were seeded on a 6-well plate at a density of 4×10^5 cells/well, followed by incubation in a mesenchymal stem cell complete medium for 24 hours. Thereafter, a peptide according to an embodiment was aliquoted thereinto at a concentration of […], 5 µM, or 50 µM, followed by incubation for 24 hours at 37 °C. Then, the culture was washed with PBS, and 100 µL of a lysis buffer to prepare a cell lysate. Subsequently, bicinchoninic acid (BCA) was quantified to prepare an equal amount of a protein sample, followed by electrophoresis using a 10 % SDS-PAGE gel. Thereafter, proteins separated by the SDS-PAGE were transferred to a PVDF membrane, and the reaction was blocked using a 5 % skim milk at room temperature for 30 minutes. Then, phospho-AKT and phospho-ERK (cell signaling, USA) antibodies were diluted in a 3 % BSA at 1:1000 and reacted with the blocked PVDF membrane at 4 °C for 16 hours. Subsequently, the reactants were washed with 0.1 % PBS-T (0.1 % Tween-20 in PBS) three times each for 15 minutes and reacted for 1 hour with a secondary antibody diluted with 5 % skim milk at 1:2000. […]"}, "[3]": {"system": "HOXC13, MSX2, and FOXN1 in human hair germinal matrix cells (HHGMCs)", "assay": "RT-PCR of activators of germinal matrix cells", "format": "cell-based", "details": "RNA level; 5 µM, or 50 µM, 24 hours; FIGS. 13 and 14", "protocol": "In this experimental example, effects of a peptide according to an embodiment on expression of Homeobox protein Hox-C13 (HOXC13), Msh homeobox 2 (MSX2), and Forkhead box protein N1 (FOXN1), which are transcription factors related to activation of human hair germinal matrix cells ([…]), were examined. Specifically, human hair germinal matrix cells were seeded on a 6-well plate at a density of 4×10^5 cell/well, followed by incubation for 24 hours in a mesenchymal stem cell complete medium. Subsequently, the culture medium was replaced with a serum free mesenchymal stem cell complete medium, followed by incubation for 24 hours. Thereafter, a peptide according to an embodiment was aliquoted thereinto at a concentration of […], 5 μM, or 50 μM, followed by incubation for 24 hours at 37 °C. Then, gene expression was examined in the RNA level in the same manner as in Experimental Example 2-3 by using primers of Table 4 below. Meanwhile, a untreated group was used as a control, and a group treated with 50 nM EGF was used as a positive control."}, "[4]": {"system": "LEF-1, c-Myc, and cyclin D1", "assay": "RT-PCR of beta-catenin downstream target genes in hair follicle dermal papilla cells", "format": "cell-based, human", "details": "RNA level, FIG. 7 (Peptide-1: c-Myc, cyclin D1), FIG. 8 (Peptide-2: LEF-1, c-Myc, cyclin D1)", "protocol": "In addition, a change in expression levels of lymphoid enhancer-binding factor-1 (LEF-1), c-Myc, and cyclin D1, which are downstream target genes of activating mechanism of beta-catenin, was examined. To this end, human hair follicle dermal papilla cells were incubated in the same manner in Experimental Example 2-2 and treated with a peptide according to an embodiment. Thereafter, the culture was washed with PBS and treated with 300 µL of easy blue (intron, Korea) to extract RNAs. Then, the extract RNAs were quantified by Nano drop, and cDNA was synthesized by using the RNAs as a template and using a cDNA synthesis kit (enzynomics, Korea). Then, polymerase chain reaction (PCR) was carried out using primers of Table 2 below and a PCR premix (enzynomics, Korea), followed by electrophoresis using a 1.5 % agarose gel, and gene expression was examined in the RNA level by a Bio-Rad gel image system."}}}
{"substance": "Arg (R)-Cys (C)-Cys (C)-Gly (G) [Peptide-1]", "values": [{"measurement": "migration of beta-catenin from cytoplasm to a nucleus", "setting": "beta-catenin", "result": "confirmed"}, {"measurement": "proliferation of dermal papilla cells", "setting": "[1]", "result": "promoted"}, {"measurement": "expression of Ha3-II, Keratin 14, and Keratin 19", "setting": "[2]", "result": "increased"}, {"measurement": "expression of DKK-1", "setting": "DKK-1 (Dickkopf-1)", "result": "inhibited"}, {"measurement": "phosphorylation of ERF and AKT", "setting": "ERF and AKT", "result": "induced"}, {"measurement": "expression of HOXC13, MSX2, and FOXN1", "setting": "[3]", "result": "increased"}, {"measurement": "expression of LEF-1, c-Myc, and/or cyclin D1", "setting": "[4]", "result": "increased"}]}
